From PubChem BioAssay AID1845212 (Molecular Pharmacology Branch, DTP, NCI, 2023)
Activity calls are given as the source filed them. How the source made its calls: active means viability on the fitted dose curve at most 10% of control; inactive means the rest.

System: NCI-H719 tumor spheroids, viability
Experiment: Anticancer human tumor NCI-H719 cell line growth inhibition;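 on IC50: spheroids exposed to compounds for seven days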;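 on viability, T/C: spheroids exposed to compounds for seven days; percent viability relative to DMSO vehicle control as 100%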
Conditions: spheroids with HUVEC and MSC; for IC50: curve of first compound; for viability, T/C: stronger effect = lower value
Method in brief: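 Complex spheroids of malignant cells with endothelial cells and mesenchymal stem cells; agents alone or combined, from near clinical Cmax (or 10 microM if unknown) down in half-log steps, 0.25% DMSO final.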

[1] = second compound 1 µM, first compound 0.0316 µM
[2] = second compound 1 µM, first compound 0.1 µM
[3] = second compound 1 µM, first compound 0.316 µM
[4] = second compound 1 µM, first compound 1 µM
[5] = second compound 1 µM, first compound 3.16 µM
[6] = second compound 1 µM, first compound 10 µM
[7] = second compound 3.16 µM, first compound 0.0316 µM
[8] = second compound 3.16 µM, first compound 0.1 µM
[9] = second compound 3.16 µM, first compound 0.316 µM
[10] = second compound 3.16 µM, first compound 1 µM
[11] = second compound 3.16 µM, first compound 3.16 µM
[12] = second compound 3.16 µM, first compound 10 µM
[13] = second compound 10 µM, first compound 0.0316 µM
[14] = second compound 10 µM, first compound 0.1 µM
[15] = second compound 10 µM, first compound 0.316 µM
[16] = second compound 10 µM, first compound 1 µM
[17] = second compound 10 µM, first compound 3.16 µM
[18] = second compound 10 µM, first compound 10 µM
[19] = second compound 31.6 µM, first compound 0.0316 µM
[20] = second compound 31.6 µM, first compound 0.1 µM
[21] = second compound 31.6 µM, first compound 0.316 µM
[22] = second compound 31.6 µM, first compound 1 µM
[23] = second compound 31.6 µM, first compound 3.16 µM
[24] = second compound 31.6 µM, first compound 10 µM
[25] = second compound 100 µM, first compound 0.0316 µM
[26] = second compound 100 µM, first compound 0.1 µM
[27] = second compound 100 µM, first compound 0.316 µM
[28] = second compound 100 µM, first compound 1 µM
[29] = second compound 100 µM, first compound 3.16 µM
[30] = second compound 100 µM, first compound 10 µM

With `CNCc1ccc(-c2cc(-c3nc(-c4ccc(S(=O)(=O)C(C)C)cc4)cnc3N)on2)cc1` + COc1cc2c(cc1O)CCNC21CSC2c3c(OC(C)=O)c(C)c4c(c3C(COC1=O)N1C(O)C3Cc5cc(C)c(OC)c(O)c5C(C21)N3C)OCO4 the IC50 (second compound 30 pM) was 0.0842 µM, the IC50 (second compound 94.9 pM) was < 0.00949 µM and the IC50 (second compound 0.0003 µM) was < 0.00949 µM. The IC50 (second compound 0.000949 µM) was < 0.00949 µM, the IC50 (second compound 0.003 µM) was < 0.00949 µM and the viability, T/C (second compound 30 pM, first compound 0.00949 µM) was 79.9%. For the same compound, the viability, T/C (second compound 30 pM, first compound 0.03 µM) was 86.5%, the viability, T/C (second compound 30 pM, first compound 0.0949 µM) was 45% and the viability, T/C (second compound 30 pM, first compound 0.3 µM) was 15.5%. For the same compound, the viability, T/C (second compound 30 pM, first compound 0.949 µM) was 10.5%, the viability, T/C (second compound 30 pM, first compound 3 µM) was 1.88% and the viability, T/C (second compound 94.9 pM, first compound 0.00949 µM) was 34.3%. It also gave a viability, T/C (second compound 94.9 pM, first compound 0.03 µM) of 29.2%, a viability, T/C (second compound 94.9 pM, first compound 0.0949 µM) of 14.2% and a viability, T/C (second compound 94.9 pM, first compound 0.3 µM) of 8.3%. For the same compound, the viability, T/C (second compound 94.9 pM, first compound 0.949 µM) was 9.95%, the viability, T/C (second compound 94.9 pM, first compound 3 µM) was 0.36% and the viability, T/C (second compound 0.0003 µM, first compound 0.00949 µM) was 8.48%. It also gave a viability, T/C (second compound 0.0003 µM, first compound 0.03 µM) of 25.4%, a viability, T/C (second compound 0.0003 µM, first compound 0.0949 µM) of 8.28% and a viability, T/C (second compound 0.0003 µM, first compound 0.3 µM) of 10.4%. The viability, T/C (second compound 0.0003 µM, first compound 0.949 µM) was 9.76%, the viability, T/C (second compound 0.0003 µM, first compound 3 µM) was 0.75% and the viability, T/C (second compound 0.000949 µM, first compound 0.00949 µM) was 8.38%. The viability, T/C (second compound 0.000949 µM, first compound 0.03 µM) was 9.01%, the viability, T/C (second compound 0.000949 µM, first compound 0.0949 µM) was 8.98% and the viability, T/C (second compound 0.000949 µM, first compound 0.3 µM) was 9.91%. It also gave a viability, T/C (second compound 0.000949 µM, first compound 0.949 µM) of 10.3%, a viability, T/C (second compound 0.000949 µM, first compound 3 µM) of 0.62% and a viability, T/C (second compound 0.003 µM, first compound 0.00949 µM) of 0.5%. The viability, T/C (second compound 0.003 µM, first compound 0.03 µM) was 1.4%, the viability, T/C (second compound 0.003 µM, first compound 0.0949 µM) was 0.58% and the viability, T/C (second compound 0.003 µM, first compound 0.3 µM) was 0.82%. It also gave a viability, T/C (second compound 0.003 µM, first compound 0.949 µM) of 0.56% and a viability, T/C (second compound 0.003 µM, first compound 3 µM) of 1.15%.

`[2H]c1nc(C)nc([2H])c1-c1cc(NC[C@@H](C)c2cccc3c(C(=O)NC)ccnc23)ncn1` + Cn1nnc2c(C(N)=O)ncn2c1=O was tested, and the IC50 (second compound 1 µM) was > 10 µM, the IC50 (second compound 3.16 µM) was > 10 µM and the IC50 (second compound 10 µM) was > 10 µM. For the same compound, the IC50 (second compound 31.6 µM) was > 10 µM, the IC50 (second compound 100 µM) was > 10 µM and the viability, T/C [1] was 93.8%. The viability, T/C [2] was 101%, the viability, T/C [3] was 90.4% and the viability, T/C [4] was 99.2%. The viability, T/C [5] was 90.6%, the viability, T/C [6] was 87.8% and the viability, T/C [7] was 104%. For the same compound, the viability, T/C [8] was 90.1%, the viability, T/C [9] was 95.3% and the viability, T/C [10] was 94.4%. For the same compound, the viability, T/C [11] was 98.9%, the viability, T/C [12] was 98.7% and the viability, T/C [13] was 103%. The viability, T/C [14] was 97%, the viability, T/C [15] was 90.4% and the viability, T/C [16] was 96.8%. The viability, T/C [17] was 89.8%, the viability, T/C [18] was 94.2% and the viability, T/C [19] was 101%. The viability, T/C [20] was 105%, the viability, T/C [21] was 101% and the viability, T/C [22] was 104%. It also gave a viability, T/C [23] of 109%, a viability, T/C [24] of 82.4% and a viability, T/C [25] of 87.1%. It also gave a viability, T/C [26] of 84.2%, a viability, T/C [27] of 68.6% and a viability, T/C [28] of 70.3%. For the same compound, the viability, T/C [29] was 68.2% and the viability, T/C [30] was 62.8%.

In the case of `CC(C)n1c(=O)n(C)c2cnc3cc(F)c(-c4ccc(OCCCN5CCCCC5)nc4)cc3c21` + Cn1nnc2c(C(N)=O)ncn2c1=O, the IC50 (second compound 1 µM) is reported as > 10 µM, the IC50 (second compound 3.16 µM) is reported as > 10 µM and the IC50 (second compound 10 µM) is reported as > 10 µM. The IC50 (second compound 31.6 µM) was > 10 µM, the IC50 (second compound 100 µM) was > 10 µM and the viability, T/C [1] was 94.3%. The viability, T/C [2] was 107%, the outcome [3] was “inactive” and the viability, T/C [4] was 79.8%. For the same compound, the viability, T/C [5] was 139%, the viability, T/C [6] was 95.2% and the viability, T/C [7] was 89.4%. For the same compound, the viability, T/C [8] was 109%, the viability, T/C [9] was 111% and the viability, T/C [10] was 87.8%. The viability, T/C [11] was 148%, the viability, T/C [12] was 116% and the viability, T/C [13] was 109%. For the same compound, the viability, T/C [14] was 104%, the viability, T/C [15] was 103% and the viability, T/C [16] was 89.2%. The viability, T/C [17] was 141%, the viability, T/C [18] was 112% and the viability, T/C [19] was 119%. It also gave a viability, T/C [20] of 118%, a viability, T/C [21] of 114% and a viability, T/C [22] of 97.2%. The viability, T/C [23] was 110%, the viability, T/C [24] was 94.4% and the viability, T/C [25] was 104%. It also gave a viability, T/C [26] of 86.8%, a viability, T/C [27] of 83.7% and a viability, T/C [28] of 74.6%. The viability, T/C [29] was 82.5% and the viability, T/C [30] was 68.5%.
